Several values for one entry are separate records, joined by “and”; a condition that tells them apart may be missing. Equal values may be shown once. Read-outs that look alike come from different tables or passages of the source.

From patent publication US20240051992A1, “THIOPHOSPHOPEPTIDES FOR ULTRAFAST TARGETING OF THE GOLGI APPARATUS” (BRANDEIS UNIVERSITY, priority 2021, published 2024) come the findings set out here.

A short description of data set [1]: Cytotoxicity against HS-5 cells. The format is cell-based. To be noted: human. As to the method: (§1) Cell Lines: All cell lines used (HeLa, Saos-2, SJSA-1, OVSAHO, HCC1937, HepG2, OVCAR-4, SKOV-3, MCF-7, HEK293, HS-5) were purchased from the American Type Culture Collection (ATCC, Manassas, VA, USA). HeLa, HepG2, MCF-7 and HEK293 cells were cultured in MEM medium with 10% FBS and 1% P/S (100 U mL^−1 penicillin and 100 μg mL^−1 streptomycin, Invitrogen Life Technologies). Saos-2, SKOV-3 cells were cultured in McCoy's 5A medium with 15% FBS and 1% P/S. HS-5 cells were cultured in DMEM medium with 10% FBS and 1% P/S. SJSA-1, OVSAHO, HCC1937, OVCAR-4 cells were cultured in RPMI-1640 medium with 10% FBS and 1% P/S. All the cells were cultured at 37° C. in a humidified atmosphere of 5% CO2. To determine the cytotoxicity of the compounds, cells were seeded in 96-well cell plate at 1.0×10^4 cells/well for 24 h followed by culture medium removal, and then fresh culture medium containing compounds were added. For fluorescence imaging, cells were seeded in confocal dish at 1.5×10^5 cells/dish for 24 h followed by the addition of fresh medium containing compounds, and then the fluorescence of cells were taken by ZEISS LSM 880 confocal laser scanning microscope with the 63× oil lens.

The next data set deals with HeLa cells. The experiment in a line: Cytotoxicity against HeLa cells. The format is cell-based. To be noted: 24 h. How it is done:
as §1

For data set [2], the system named is alkaline phosphatase (ALP). How it is done: Determination of Dephosphorylation Rates in vitro: To determine the dephosphorylation rates of thiophosphopeptides in vitro, pS1, pO1, pS2, pO2 solutions (PBS, pH 7.4) were prepared at concentration of 120 μM and ALP was added into the solutions to make the final concentration of ALP to 0.1 U/mL at 37° C. At the designated time, the same volume of methanol was added to eliminate the activity of ALP. LC/MS was used analyse the results.

Data set [3] in a line: Cytotoxicity against HEK293 cells. The data set is classed as cell-based. To be noted: human. As to the method:
as §1

In data set [4] the test system is Golgi of HeLa cells. The experiment in a line: Staining of pS2-treated HeLa cells with tetracysteine probe FlAsH-EDT2. The data set is classed as cell-based. To be noted: pS2 10 μM, 4 h; FlAsH-EDT2 1 μM, 1 h. How it is done:
Staining cells with FlAsH-EDT 2: Briefly, after incubating HeLa cell lines (1.5×10^5) in 3.5 cm confocal dish for 24 h at 37° C. in a humidified atmosphere of 5% CO2, we discarded the medium and added fresh medium containing pS2 (10 μM) and incubated them together for 4 h. After 4 h, medium was removed followed by three-time wash by cell imaging buffer to eliminate FBS. Then, we added FlAsH-EDT2 solution (cell imaging buffer, 1 μM) into the confocal dish and incubated the HeLa cells at 37° C. for 1 h. Meanwhile, we prepared 1,2-Ethanedithiol (EDT) solution (cell imaging buffer, 250 μM) and after the one-hour incubation of HeLa cells with FlAsH-EDT2, FlAsH-EDT2 was discarded and EDT solution was added to the confocal dish to eliminate the unspecific binding of FlAsH-EDT2 for 10 min. Ten minutes later, EDT solution was removed and cells were washed with cell imaging buffer three times and the fluorescence images were taken by ZEISS LSM 880 confocal laser scanning microscope.

The nature of data set [5]: Critical micelle concentration (CMC) determination by dynamic light scattering. The format is physicochemical. Particulars: thiophosphopeptide in deionized water, pH 7.4, DLS. How it is done: Critical micelle concentration (CMC) determination: A series of solutions of compounds (pS1, pS2), from the concentration of 0.0625 μM to 400 μM, were prepared in deionized water and adjusted the pH to 7.4. The count rates of the solutions were measured and recorded by an ALV/DLS/SLS-5000 Light Scattering System, which were converted to the intensity of scattered light and then plotted against concentrations to determine the CMC values. Then, ALP (0.1 U/mL) was added to the series of solutions and after 24 h, the same procedures were proceeded to determine CMC values of dephosphorylated pS1 and pS2 (S1 and S2).

Data set [6] relates to Golgi of HeLa cells. As to the kind of experiment: CLSM fluorescence imaging of Golgi accumulation in HeLa cells. To be noted: for Golgi fluorescence: 4 minutes.
Another data set deals with OVSAHO cells. As to the kind of experiment: CLSM rate of fluorescence increase at Golgi, OVSAHO. To be noted: pS1 10 μM. The format is cell-based. How it is done:
as §1, with “lens. […]” for “lens.”

The subject of another data set is HEK293 cells. As to the kind of experiment: CLSM rate of fluorescence increase at Golgi, HEK293. The format is cell-based. To be noted: pS1 10 μM. How it is done: as §1, with “lens. […]” for “lens.”
In the next data set the test system is OVCAR4 cells. As to the kind of experiment: CLSM rate of fluorescence increase at Golgi, OVCAR-4. The format is cell-based. Particulars: pS1 10 μM. How it is done: as §1, with “lens. […]” for “lens.”
For a further data set, the system named is SJSA-1 cells. The experiment in a line: CLSM rate of fluorescence increase at Golgi, SJSA-1. The format is cell-based. To be noted: pS1 10 μM. How it is done: as §1, with “lens. […]” for “lens.”
For another data set, the system named is MCF7 cells. The experiment in a line: CLSM rate of fluorescence increase at Golgi, MCF-7. The data set is classed as cell-based. Particulars: pS1 10 μM. How it is done:
as §1, with “lens. […]” for “lens.”

A short description of data set [7]: Transmission electron microscopy of pS1 with or without ALP. The format is physicochemical. Particulars: 5 μM, without ALP. As to the method: Transmission Electron Microscopy Experiments: The 400 mesh copper grids coated with carbon film was glowing discharged and sample solutions (5 μL of each) was placed onto the grids. After 30 seconds, the sample solution was removed, and the grids were stained by uranyl acetate (2% v/v) and allowed to dry in air. TEM images were obtained with Morgagni 268 transmission electron microscope at the HV of 80 kV with filament of 2.

Another data set relates to HCC1937 cells. As to the kind of experiment: CLSM rate of fluorescence increase at Golgi, HCC1937. The format is cell-based. Particulars: pS1 10 μM. As to the method: as §1, with “lens. […]” for “lens.”
The subject of another data set is HS-5 cells. The experiment in a line: CLSM rate of fluorescence increase at Golgi, HS-5. To be noted: pS1 10 μM. The data set is classed as cell-based. As to the method: as §1, with “lens. […]” for “lens.”
In a further data set the test system is Saos-2 cells. The experiment in a line: CLSM rate of fluorescence increase at Golgi, Saos-2. The data set is classed as cell-based. Particulars: pS1 10 μM. How it is done:
as §1, with “lens. […]” for “lens.”

The next data set has as its system SKOV3 cells. The experiment in a line: CLSM rate of fluorescence increase at Golgi, SKOV-3. The data set is classed as cell-based. Particulars: pS1 10 μM. How it is done:
as §1, with “lens. […]” for “lens.”

For another data set, the system named is HepG2 cells. The experiment in a line: CLSM rate of fluorescence increase at Golgi, HepG2. Particulars: pS1 10 μM. The data set is classed as cell-based. As to the method:
as §1, with “lens. […]” for “lens.”

In the case of `O=C(Cc1ccc2ccccc2c1)N[C@H](Cc1ccccc1)C(=O)N[C@H](Cc1ccccc1)C(=O)NCCSP(=O)(O)O` [pS2], the IC50 at 24 h in [1] and in [3] was over 100000 nM throughout. Further, in the data set with HeLa cells (compared with S2), the “selectivity against cancer cells (HeLa vs HEK293 and HS-5)” value was “more selective than S2”. The IC50 in the data set with HeLa cells (HeLa cells) was 2800 nM and ~3000 nM. Further, the “inhibitory activity against HeLa cells relative to pO2” value in the data set on HeLa cells (HeLa cells) was “an order of magnitude higher than that of pO2”. In the data set with HeLa cells (pS2 10 μM), the “rescue of HeLa cells by cell death inhibitors (Z-VAD-FMK, NAc, Nec-1, DFO, Fer-1, disulfiram)” value is “unable to rescue”. Besides, in data set [2] (120 μM, ALP 0.1 U/mL, PBS pH 7.4, 37° C.), the “dephosphorylation by ALP (rate, in words)” value (shortened to “dephosphorylation by ALP”) is recorded as “rapid dephosphorylation”. For the same molecule, in data set [2] (ALP 0.1 U/mL, about 16 minutes), the “conversion to dephosphorylated product” value is “nearly fully converted”. Further, in the data set on Golgi of HeLa cells [4], the “FlAsH-EDT2 staining of treated cells” value is given as “fluorescent at the Golgi of the HeLa cells”. For the same molecule, the “critical micelle concentration (CMC)” value in data set [5] stood at 9.5 µM.
Regarding “NBD-(β-Ala-f-f-NH—(CH2)2-phosphate [pO1, reference compound]”, the “dephosphorylation by ALP” value in data set [2] (pH 7.4) was “taking longer time for dephosphorylation than that of pS1”. Also, the fluorescence in cells result in the data set with Golgi of HeLa cells [6] (10 μM, 8 minutes) was “almost no fluorescence”; in the data set on Golgi of HeLa cells [6] (100, 50, 20 μM, 4 hours), “several scattered fluorescent puncta in cells”. The “cellular uptake and localisation” value with Golgi of HeLa cells [6] (HeLa cells) is “requires hours for cellular uptake and largely remains in endosomes”.
Regarding “NBD-(β-Ala-f-f-NH—(CH2)2-thiophosphate [pS1]”, the “fluorescence intensity increase at the Golgi” value with OVSAHO cells was “increase significantly”; in the data set on HEK293 cells, “much slowly”; in the data set on OVCAR4 cells, “slightly”; in the data set on SJSA-1 cells, “increase significantly”; in the data set on MCF7 cells, “much slowly”; with HCC1937 cells it was “increase significantly”. The “fluorescence intensity increase at the Golgi” value in the data set with HS-5 cells is recorded as “much slowly”; with Saos-2 cells, “increase significantly”; in the data set with SKOV3 cells it was “much slowly”; in the data set with HepG2 cells, “slightly”. Moreover, in data set [2] (pH 7.4), the “dephosphorylation by ALP” value is “fast dephosphorylation”. The “time until distinctive fluorescence appears at the Golgi” value in the data set with Golgi of HeLa cells [6] (500 nM) was found to be 15 min. The Golgi fluorescence result in the data set on Golgi of HeLa cells [6] (2 μM) is “much weaker fluorescence at the Golgi”; in the data set on Golgi of HeLa cells [6] (5 μM), “green fluorescence clearly still presents at the Golgi, but little at the ER”; with Golgi of HeLa cells [6] (10 μM), “bright green fluorescence presents in Golgi and weak fluorescence in ER”. In the data set with Golgi of HeLa cells [6] (10 μM), the “enhancement of fluorescence intensity at the Golgi from 1 minute to 8 minutes” value is recorded as “about 7 times”. The “onset of fluorescence after addition” value in the data set on Golgi of HeLa cells [6] (10 μM, 0 min) is reported as “appears almost instantly”. Also, in the data set with Golgi of HeLa cells [6] (10 μM, 8 minutes), the “colocalisation of fluorescence with CellLight Golgi-RFP” value was “overlaps with the red fluorescence from all Golgi-RFP”. For the same molecule, in the data set with Golgi of HeLa cells [6] (10 μM, 20 min), the “cell morphology in DIC image” value was “well-spread HeLa cells”. Besides, the “concentration as low as which S1 accumulates at Golgi” value in the data set with Golgi of HeLa cells [6] (HeLa cells treated with pS1) stood at 500 nM. Also, in the data set with Golgi of HeLa cells [6] (HeLa pretreated with pS1, fresh medium), the “fluorescence at Golgi of pretreated cells in fresh culture medium (exocytosis)” value is listed as “drops only slightly over time”. For the same molecule, in the data set with Golgi of HeLa cells [6] (PDI inhibition), the “rate of Golgi accumulation when protein disulfide isomerases (PDIs) are inhibited” value is reported as “slight decrease of the rate of Golgi accumulation”. For the same molecule, the “accumulation at Golgi after cytochalasin D (CytD)” value in the data set with Golgi of HeLa cells [6] (pS1 10 μM, CytD 0.5, 1.0 μg/mL, 30 min pretreatment) is “decreases the accumulation of S1 at Golgi in a concentration-dependent manner”. In the data set with Golgi of HeLa cells [6] (pS1 10 μM, DQB 20 μM, 30 min pretreatment), the “rate of fluorescence increase at Golgi after ALP inhibitor DQB” value is “reduce the rate of fluorescence increase at the Golgi”. For the same molecule, the “accumulation at Golgi with N-ethylmaleimide (NEM)” value with Golgi of HeLa cells [6] (pS1 10 μM, NEM 5 mM, 16 min) is reported as “almost completely eliminates the accumulation of S1 at Golgi”. Further, the “rate of fluorescence increase at Golgi after phosphatase inhibitor cocktail set 3 (PIC)” value with Golgi of HeLa cells [6] (pS1 10 μM, PIC 4000×, 30 min pretreatment) was “reduce the rate of fluorescence increase at the Golgi”. Besides, in the data set with Golgi of HeLa cells [6] (pS1 10 μM, PLC 0.2 U, 30 min pretreatment), the “rate of fluorescence increase at Golgi after phospholipase C (PLC)” value was “slightly faster increase of fluorescence in the Golgi”. The “rate of fluorescence increase at Golgi after methyl-β-cyclodextrin (mβCD)” value in the data set on Golgi of HeLa cells [6] (pS1 10 μM, mβCD 5 mM, 30 min pretreatment) is given as “significantly decreases the rate of the fluorescence increase at the Golgi”. Further, the “accumulation at Golgi with Golgi disruptor brefeldin A (BFA)” value in the data set on Golgi of HeLa cells [6] (with BFA) is “abolishes the accumulation”. For the same molecule, the “assemblies seen by TEM” value in [7] is “micelles”. In [5], the “critical micelle concentration (CMC)” value was 6.0 µM.

In general, IC50 refers to the point on the concentration scale where inhibition reaches its midpoint. Read a high IC50 as lower potency.
